The text below walks through data of ChEMBL document CHEMBL1212795, “Transferable quinolone resistance in Vibrio cholerae” (2010).

Experiment [1] concerns Escherichia coli. Nature of the experiment: Antibacterial activity against azide-resistant Escherichia coli J53 SXT1 transconjugant with qnrVC3 gene expressing Vibrio cholerae 59 strain. In kind it is functional.
Experiment [2] relates to Escherichia coli. Kind of experiment: Antibacterial activity against azide-resistant Escherichia coli J53 SXT2 transconjugant with qnrVC3 gene expressing Vibrio cholerae 59 strain.
In experiment [3] the test system is Escherichia coli. Nature of the experiment: Antibacterial activity against azide-resistant Escherichia coli J53 TET1 transconjugant with qnrVC3 gene expressing Vibrio cholerae 59 strain. The experiment is classed as functional.
Experiment [4] deals with Escherichia coli. Kind of experiment: Antibacterial activity against azide-resistant Escherichia coli J53 TET2 transconjugant with qnrVC3 gene expressing Vibrio cholerae 59 strain.
The test system of experiment [5] is Escherichia coli. Kind of experiment: Antibacterial activity against azide-resistant Escherichia coli J53 containing plasmid pQE60. In kind it is functional.
Experiment [6] deals with Escherichia coli. Kind of experiment: Antibacterial activity against azide resistant Escherichia coli J53 transformed with pQE60-qnrVC3 gene Vibrio cholerae 59 strain. In kind it is functional.
The test system of experiment [7] is Escherichia coli. Kind of experiment: Antibacterial activity against azide-resistant Escherichia coli J53 SXT13-1 transconjugant with qnrVC3 gene expressing Vibrio cholerae 13 strain. In kind it is functional.

Converted amounts (≈) assume the structure as drawn.

Turning to `CC1(C)S[C@@H]2[C@H](NC(=O)[C@H](N)c3ccccc3)C(=O)N2[C@H]1C(=O)O` [AMPICILLIN], the MIC against Escherichia coli [1] came out at 4 µg/mL (≈ 11.4 µM); against Escherichia coli [2], 4 µg/mL (≈ 11.4 µM); in the experiment on Escherichia coli [3], 6 µg/mL (≈ 17.2 µM); against Escherichia coli [4] it was 4 µg/mL (≈ 11.4 µM).
On to `CN[C@@H]1[C@H](O[C@H]2[C@H](O[C@H]3[C@H](O)[C@@H](O)[C@H](N=C(N)N)[C@@H](O)[C@@H]3N=C(N)N)O[C@@H](C)[C@]2(O)C=O)O[C@@H](CO)[C@H](O)[C@H]1O` [STREPTOMYCIN], for which the MIC in the experiment on Escherichia coli [1], in the experiment with Escherichia coli [2], with Escherichia coli [3] and against Escherichia coli [4] was > 192 µg/mL throughout.
On to GENTAMICIN, for which the minimal inhibitory concentration (MIC) against Escherichia coli [1] and against Escherichia coli [3] was 0.75 µg/mL each time.
With `C[C@H]1COc2c(N3CCN(C)CC3)c(F)cc3c(=O)c(C(=O)O)cn1c23.C[C@H]1COc2c(N3CCN(C)CC3)c(F)cc3c(=O)c(C(=O)O)cn1c23.O` [LEVOFLOXACIN], the MIC worked out at 0.19 µg/mL in the experiment on Escherichia coli [1]; 0.032 µg/mL against Escherichia coli [2]; 0.032 µg/mL against Escherichia coli [3]; 0.125 µg/mL against Escherichia coli [4]; 0.032 µg/mL in the experiment with Escherichia coli [5]; 0.19 µg/mL against Escherichia coli [6].
In the case of `COc1cc(Cc2cnc(N)nc2N)cc(OC)c1OC` [TRIMETHOPRIM], the MIC with Escherichia coli [1], against Escherichia coli [2], in the experiment on Escherichia coli [3] and against Escherichia coli [4] was > 32 µg/mL each time.
`CCn1cc(C(=O)O)c(=O)c2ccc(C)nc21` [NALIDIXIC ACID]: the minimum inhibitory concentration (MIC) against Escherichia coli [1] stood at 3 µg/mL (≈ 12.9 µM); with Escherichia coli [2], 3 µg/mL (≈ 12.9 µM); against Escherichia coli [3], 4 µg/mL (≈ 17.2 µM); with Escherichia coli [4], 4 µg/mL (≈ 17.2 µM).
Turning to `O=C(O)c1cn(C2CC2)c2cc(N3CCNCC3)c(F)cc2c1=O` [CIPROFLOXACIN], the MIC against Escherichia coli [1] came to 0.047 µg/mL (≈ 0.142 µM); in the experiment on Escherichia coli [4] it was 0.064 µg/mL (≈ 0.193 µM).
On to `CN(C)[C@@H]1C(O)=C(C(N)=O)C(=O)[C@@]2(O)C(O)=C3C(=O)c4c(O)cccc4[C@@](C)(O)[C@H]3C[C@@H]12` [TETRACYCLINE], for which the MIC was determined as 64 µg/mL (≈ 144 µM) against Escherichia coli [1]; 64 µg/mL (≈ 144 µM) in the experiment with Escherichia coli [2]; 64 µg/mL (≈ 144 µM) with Escherichia coli [3]; 64 µg/mL (≈ 144 µM) against Escherichia coli [4]; 1.5 µg/mL (≈ 3.38 µM) in the experiment with Escherichia coli [7].

What is called MIC is the least concentration at which growth counts as inhibited. The low end stands for a more susceptible organism, the high end for a less susceptible organism.
